Measurements reported in patent publication US5698552A, “Hetrazepinoid amides” (Boehringer Ingelheim KG, priority 1990, dated 1997).

How the values were obtained:
[1] = tested on: PAF-induced platelet aggregation; test: Inhibition of PAF-induced platelet aggregation in vitro (Born and Cross method); format: cell-based, healthy male and female donors (human); conditions: PAF 5 ×10^-8 M; human platelet-rich plasma (TRP); n=4; read-out: PAF-induced platelet aggregation (inhibition, IC50 = concentration at 50% aggregation inhibition)
Method: 200 ml samples of blood were taken from a non-obstructed vein, with the aid of a plastic syringe containing 3.8% sodium citrate solution, from healthy male and female donors aged from 18 to 35 years who had not taken any medicaments (aspirin or other non-steroid anti-inflammatories) for several days before the blood withdrawal. The ratio of sodium citrate solution:blood was 1:9. The citrated blood was centrifuged in plastic tubes at 150 ×g (=1,200 rpm) at room temperature for 20 min (Heraeus Christ bench centrifuge 124).
The platelet aggregation was measured in vitro by the method of Born and Cross (1963), an aggregation inducer (PAF) being added to the TRP, while stirring constantly. For the measurement, 0.8 ml TRP and 0.2 ml modified Tyrode's solution (see below) were introduced into 1 ml plastic cells, each of which contained a small metal pin (stirrer, 1,000 rpm). The test substance was added in a volume of 10 μl for 2 to 3 min before inducing the aggregation. Either DMSO and water or a dilute HCl solution was used as the solvent. The control batches contained the corresponding volume of these solvents. After recording the initial absorption (2-3 min), aggregation was induced. PAF (5 ×10^-8 M; Bachem Feinchemikalien) was introduced into the cell in a volume of 10 μl.
The modified Tyrode's solution had the following composition: 136.9 mM NaCl; 2.68 mM KCl; 0.5 mM MgCl2; 1.8 mM CaCl2; 0.42 mM NaH2 PO4; 5.55 mM glucose and 11.9 mM NaHCO3.
To evaluate substance effects, the maximum of the first aggregation wave was used. The maximum absorption induced by the aggregation inducer (=maximum aggregation=100%) was simultaneously run in a parallel batch (in the 2nd channel of the aggregometer) to each test batch and used as the 100% value. The aggregation value achieved under the action of the test substance was quoted as % of the control value (batch).
Concentration/effect curves with a random sample size of in each case n=4 were plotted with the aid of this method and IC50 values (concentration at 50% aggregation inhibition) were calculated.

PAF receptor = biological target: T1, PAF receptor (Homo sapiens, UniProt P25105); test: 3H-PAF-receptor bonding on human thrombocytes (platelets); format: binding; conditions: method as in European Patent Application 368 175
T1 construct: determined using human thrombocytes; endogenous in cells; host or cells: human thrombocytes (platelets)
Method: Then, at 20° C., 18.3 g (0.12 mol) of hydroxybenzotriazole (HOBT), 23.7 g (0.109 mol) of N-4-trifluoromethylbenzyl-N-n-propylamine and 25.6 g (0.125 mol) of dicyclohexyl-carbodiimide (DCCI) and a further 250 ml of dimethylformamide (DMF) were added. The mixture was left to react for 24 hours. It was then cooled to 5° C. and filtered. 500 ml of water were added to the filtrate and it was extracted with ethyl acetate. The combined organic phases were washed with water and saturated sodium hydrogen carbonate solution, dried with magnesium sulphate and filtered over kieselguhr/char-coal. After working up in the usual way, 50 g of colourless crystals of the title compound are obtained by crystallisation from ethanol/diisopropylether (1:1). […] (The method used is described for example in European Patent Application 368 175).

T1 sequence (P25105 whole entry): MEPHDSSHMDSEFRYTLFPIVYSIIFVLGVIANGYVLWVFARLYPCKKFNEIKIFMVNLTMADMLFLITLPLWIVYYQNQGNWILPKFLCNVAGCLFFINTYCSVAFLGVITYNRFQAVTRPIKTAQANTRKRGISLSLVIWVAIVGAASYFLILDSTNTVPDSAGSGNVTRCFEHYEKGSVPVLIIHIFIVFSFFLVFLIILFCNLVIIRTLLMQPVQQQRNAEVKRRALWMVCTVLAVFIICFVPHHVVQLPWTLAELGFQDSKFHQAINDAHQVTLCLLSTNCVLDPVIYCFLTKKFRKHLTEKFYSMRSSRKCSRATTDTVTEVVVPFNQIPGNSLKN

| SMILES | IC50 [1] | Ki (PAF receptor) |
| --- | --- | --- |
| CCCN(Cc1ccccc1)C(=O)[C@@H]1Cc2sc3c(c2C1)C(c1ccccc1Cl)=NCc1nnc(C)n1-3 [Example 2, S(-)-3-(Benzylpropylaminocarbonyl)-5-(2-chlorophenyl)-10-methyl-7H-cyclopenta[4,5]thieno[3,2-f][1,2,4]-triazolo-[4,3-a][1,4]diazepine] | 0.049 µM | – |
| CCN(Cc1ccccc1)C(=O)[C@@H]1Cc2sc3c(c2C1)C(c1ccccc1Cl)=NCc1nnc(C)n1-3 [Example 6, S(-)-3-(Benzylethylaminocarbonyl)-5-(2-chlorophenyl)-10-methyl-7H-cyclopenta[4,5]thieno[3,2-f][1,2,4]triazolo-[4,3-a][1,4]diazepine] | 0.023 µM | – |
| CCCCN(Cc1ccccc1)C(=O)[C@@H]1Cc2sc3c(c2C1)C(c1ccccc1Cl)=NCc1nnc(C)n1-3 [Example 7, S(-)-3-(Benzylbutylaminocarbonyl)-5-(2-chlorophenyl)-10-methyl-7H-cyclopenta[4,5]thieno-[3,2-f][1,2,4]triazolo-[4,3-a][1,4]diazepine] | 0.084 µM | – |
| Cc1nnc2n1-c1sc3c(c1C(c1ccccc1Cl)=NC2)C[C@H](C(=O)N(Cc1ccccc1)Cc1ccccc1)C3 [Example 10, S(--)-3-(Dibenzylaminocarbonyl)-5-(2-chlorophenyl)-10-methyl-7H-cyclopenta[4,5]thieno-[3,2-f][1,2,4]-triazolo-[4,3-a][1,4]diazepine] | 0.037 µM | – |
| CCCN(Cc1ccc(C(F)(F)F)cc1)C(=O)[C@@H]1Cc2sc3c(c2C1)C(c1ccccc1Cl)=NCc1nnc(C)n1-3 [Example 18] | – | 0.0018 µM |
